{"source": "paper PMC11502128", "about": "(Journal of Lipids, 2024)", "key": {"HepG2 cells [1]": {"test_system": "HepG2 cells", "test": "Cell viability assessment (crystal violet), HepG2", "format": "cell-based, human", "details": "triterpenoids at 25 and 100 μM; lovastatin 50 μM", "procedure": "The 3T3-L1 and HepG2 cells (at 70%–80% confluence) were seeded at concentrations of 0.2 × 10^4 per 100 μL and 5.0 × 10^4 per 100 μL, respectively, in a 96-well plate. […] Control cells were exposed to either 0.01% methanol (vehicle control) or sterile phosphate buffered saline (PBS) pH 7.4. Following the exposure, the cells were fixed with 20% formalin (final concentration 2% [v/v]) at 37°C for 30 min. The solution was discarded, and the plate was blotted dry. The cells were stained with the addition of 100 μL f CV (0.1% in 200 mM formic acid) to each well. After 30 min at room temperature, the dye solution was removed, and the plate was washed well with tap water and dried. The dye was then extracted from the stained cells with 100 μL of a 10% (v/v) acetic acid solution. The absorbance was measured at 630 nm, and the results were expressed as percentage cell viability relative to the control (cells treated with PBS)."}, "[2]": {"test_system": "differentiated 3T3-L1 cells", "test": "Glycerol release from isoproterenol-stimulated differentiated adipocytes (lipolysis)", "format": "cell-based, Mouse", "details": "100 μM, 3 days, then 100 nM isoproterenol 3 h", "procedure": "Subsequently, the cells were exposed to isoproterenol (final concentration of 100 nM) for 3 h to stimulate lipolysis. The glycerol levels released into the medium were used as a measure of lipolysis evaluated using a commercial lipolysis colorimetric assay kit (MAK211) according to the manufacturer's instructions. Cell viability of the lipolysis-induced adipocytes was determined with CV staining."}, "AMPK gene": {"test_system": "AMPK gene", "test": "qRT-PCR AMPK mRNA expression in differentiated 3T3-L1 adipocytes", "format": "cell-based, Mouse", "details": "100 μM, 3 days, not significant versus control", "procedure": "(§1) The mRNA expression of selected lipogenic and lipolytic genes was quantified using qRT–PCR following the established protocol as described by Ndlovu et al.. […] The RNA was extracted with the […] RNA extraction kit. The RNA was then converted into cDNA using an iScript cDNA Synthesis Kit from […] following the manufacturer's protocols. qRT–PCR analysis was performed using Bio-Rad CFX Maestro software. All mRNA expression levels were standardized to ensure consistency using glyceraldehyde 3-phosphate dehydrogenase (GAPDH) as a reference gene. The primers used were designed using the BLAST NCBI online server (https://www.ncbi.nlm.nih.gov/tools/primer-blast/). Data was expressed as fold change relative to the untreated control."}, "HepG2 cells [3]": {"test_system": "HepG2 cells", "test": "Oleic acid-induced neutral lipid accumulation in HepG2 cells (NR staining)", "format": "cell-based, human", "details": "100 μM, 48 h, HepG2 exposed to 1 mM oleic acid", "procedure": "(§2) The HepG2 cells were seeded in a 96-well plate at a cell density of 5 × 10^4 and left to attach overnight. The cells were incubated at 37°C, 5% CO2 for 48 h, and 1 mM OA (final concentration) to stimulate lipid accumulation. […] Control cells were exposed to either the vehicle control or sterile PBS.\n(§3) With NR staining, the accumulation of neutral lipids was assessed in the differentiated 3T3-L1 cells and OA-induced lipid accumulation in HepG2 cells following treatment with the triterpenoids. The cells were washed with PBS and fixed with 4% formaldehyde for 1 h, and then the cells were stained with the NR staining solution (100 μM in 100% DMSO) in the dark for 3 h. Background fluorescence was measured at an excitation and an emission wavelength of 485 nm and 590 nm (Ex4850 and Em590), respectively. The dye solution was then discarded, the wells were then rinsed with PBS, and the plate was blotted dry. The dye was extracted from the stained cells with 100 μL PBS, and the fluorescence was measured again at Ex450 and Em590. The difference in fluorescence between the extracted dye and background fluorescence was calculated. The percentage of intracellular lipid accumulation relative to the untreated control cells was calculated."}, "HepG2 cells [4]": {"test_system": "HepG2 cells", "test": "Oleic acid-induced hepatic lipid accumulation in HepG2 cells (ORO staining)", "format": "cell-based, human", "details": "100 μM, 48 h, HepG2 exposed to 1 mM oleic acid", "procedure": "as §2\nThe ORO staining technique was used to detect lipid droplets in both differentiated adipocytes and OA-exposed hepatocytes. The cells were fixed with 2% (v/v) formaldehyde for 30 min at 37°C. The formaldehyde was then discarded, and the plates were air-dried. The fixed cells were stained with ORO staining solution (three parts of 0.5% ORO (w/v) in 60% isopropyl alcohol and two parts of water) for 1 h. After staining, the excess ORO was discarded, and the plates were rinsed with water and dried. Microscopic images were acquired with an Olympus microscope (Olympus, Tokyo, Japan). The ORO dye was then extracted with 60% isopropanol, and the absorbance was measured at 405 nm. For the 3T3-L1 cells, the percentage of lipid accumulation was relative to the control cells (PBS-treated) cells, with 100% lipid formation, while for HepG2, the results were expressed as the percentage of lipid accumulation relative to cells exposed to OA."}, "PPARγ gene": {"test_system": "PPARγ gene", "test": "qRT-PCR PPARγ mRNA expression in differentiated 3T3-L1 adipocytes", "format": "cell-based, Mouse", "details": "100 μM, 3 days", "procedure": "as §1"}, "[5]": {"target": "T1, porcine PNLIP (pancreatic lipase) (Sus scrofa, UniProt P00591)", "T1 sequence (P00591 1-450)": "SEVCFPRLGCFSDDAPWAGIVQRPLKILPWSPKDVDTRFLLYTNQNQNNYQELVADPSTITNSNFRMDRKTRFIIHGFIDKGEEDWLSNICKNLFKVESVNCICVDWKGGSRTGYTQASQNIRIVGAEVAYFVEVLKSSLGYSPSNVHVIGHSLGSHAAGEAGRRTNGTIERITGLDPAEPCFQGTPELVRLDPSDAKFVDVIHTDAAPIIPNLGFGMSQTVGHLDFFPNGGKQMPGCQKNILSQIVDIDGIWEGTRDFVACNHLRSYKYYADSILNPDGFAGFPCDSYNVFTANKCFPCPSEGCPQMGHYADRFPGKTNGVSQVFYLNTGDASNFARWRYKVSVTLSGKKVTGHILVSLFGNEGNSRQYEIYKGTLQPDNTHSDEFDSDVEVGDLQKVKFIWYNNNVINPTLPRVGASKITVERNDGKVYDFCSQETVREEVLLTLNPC", "test": "PNLIP inhibition and enzyme kinetics with p-nitrophenyl palmitate", "format": "biochemical", "details": "for Pancreatic lipase Mode of inhibition: Lineweaver–Burk plot", "procedure": "The PNLIP inhibitory activity of the compounds was tested using p-nitrophenyl palmitate (p-NPP) as an artificial substrate. […] The reaction was initiated by adding 10 mM p-NPP at 37°C for 20 min. Then, the enzyme activity was determined calorimetrically by measuring the release of p-nitrophenol measured at 405 nm using a SpectraMax paradigm microplate reader (Molecular Devices Inc, San Jose, California). The IC50 values were determined using nonlinear regression from the absorbance versus concentration curves.\nThe modes of enzyme inhibition were determined using the reaction protocol described above. While all the other parameters remained unchanged, the enzyme activity was measured at increasing substrate concentrations (2–10 mM) in the presence and absence of the test compound (inhibitor). Double reciprocal (Lineweaver–Burk) plots were generated and used to determine the inhibition types Km and Vmax. The inhibitory constants (Ki) of the test compounds were also calculated."}, "HSL gene": {"test_system": "HSL gene", "test": "qRT-PCR HSL mRNA expression in differentiated 3T3-L1 adipocytes", "format": "cell-based, Mouse", "details": "100 μM, 3 days", "procedure": "as §1"}, "[6]": {"test_system": "differentiated 3T3-L1 adipocytes", "test": "Neutral lipid accumulation in differentiated 3T3-L1 adipocytes (NR staining)", "format": "cell-based, Mouse", "details": "100 μM, 3 days, differentiated 3T3-L1, relative to control", "procedure": "The differentiation of 3T3-L1 cells was performed as described by Ibrahim et al. with slight modifications. The preadipocyte cells were seeded at a concentration of 0.2 × 10^4 per 100 μL into each of the wells of a 96-well plate and were grown at 37°C with 5% CO2 for 3 days, until confluent. On Day 4, differentiation was induced by replacing the medium with 100 μL Differentiation Medium 1 (DM1, DMEM supplemented with final concentrations of 10 μg/mL insulin, 0.5 mM isobutyl methylxanthine, 1 μM dexamethasone, and 2 μM rosiglitazone) for further 3 days. On Day 8, DM1 was replaced with DM2 (DMEM with only 10 μg/mL insulin) for 3 days. […]\nas §3, with “The cells were washed with PBS and fixed with 4% formaldehyde for 1 h, and then the cells were stained with the NR staining solution (100 μM in 100% DMSO) in the dark for 3 h.” left out, “The dye solution was then discarded, the wells were then rinsed with PBS, and the plate was blotted dry.” left out"}, "C/EBPα gene": {"test_system": "C/EBPα gene", "test": "qRT-PCR C/EBPα mRNA expression in differentiated 3T3-L1 adipocytes", "format": "cell-based, Mouse", "details": "100 μM, 3 days", "procedure": "as §1"}, "[7]": {"test_system": "differentiated 3T3-L1 adipocytes", "test": "Intracellular lipid accumulation in differentiated 3T3-L1 adipocytes (ORO staining)", "format": "cell-based, Mouse", "details": "100 μM, 3 days, differentiated 3T3-L1, relative to control", "procedure": "The differentiation of 3T3-L1 cells was performed as described by Ibrahim et al. with slight modifications. The preadipocyte cells were seeded at a concentration of 0.2 × 10^4 per 100 μL into each of the wells of a 96-well plate and were grown at 37°C with 5% CO2 for 3 days, until confluent. On Day 4, differentiation was induced by replacing the medium with 100 μL Differentiation Medium 1 (DM1, DMEM supplemented with final concentrations of 10 μg/mL insulin, 0.5 mM isobutyl methylxanthine, 1 μM dexamethasone, and 2 μM rosiglitazone) for further 3 days. On Day 8, DM1 was replaced with DM2 (DMEM with only 10 μg/mL insulin) for 3 days. Finally, DM2 was replaced with only DMEM, and the cells were exposed to the different concentrations (1–100 μM) of the test compounds for a further 3 days. Control cells were exposed to either the vehicle control or sterile PBS.\nThe ORO staining technique was used to detect lipid droplets in both differentiated adipocytes and OA-exposed hepatocytes. […] The ORO dye was then extracted with 60% isopropanol, and the absorbance was measured at 405 nm. For the 3T3-L1 cells, the percentage of lipid accumulation was relative to the control cells (PBS-treated) cells, with 100% lipid formation, while for HepG2, the results were expressed as the percentage of lipid accumulation relative to cells exposed to OA."}}, "note": "Read-outs that look alike come from different tables or passages of the source."}
{"compound": "C/C(=C/CC[C@H](C(=O)O)C1CC[C@]2(C)C3=CCC4C(C)(C)[C@H](O)CC[C@]4(C)C3CC[C@@]12C)CO", "note": "(stereo partly drawn) [ARM-2, 3α,26-dihydroxytirucalla-7,24-dien-21-oic acid]", "values": [{"measurement": "cytotoxicity in the HepG2 model (abstract)", "setting": "HepG2 cells [1]", "value": "lacked cytotoxicity"}, {"measurement": "decrease in glycerol release", "setting": "[2]", "value": 36.47, "unit": "%"}, {"measurement": "increase in the expression of the AMPK gene", "setting": "AMPK gene", "value": 39.10, "unit": "%"}, {"measurement": "reduction in neutral lipid accumulation (NR staining)", "setting": "HepG2 cells [3]", "value": 40, "unit": "%"}, {"measurement": "reduction of OA-induced lipid accumulation (ORO staining)", "setting": "HepG2 cells [4]", "value": 31.56, "unit": "%"}, {"measurement": "reduction of PPARγ gene expression", "setting": "PPARγ gene", "value": 59.30, "unit": "%"}, {"measurement": "Pancreatic lipase Mode of inhibition", "setting": "[5]", "value": "Noncompetitive"}, {"measurement": "Ki", "setting": "[5]; Lineweaver–Burk, substrate 2–10 mM, mean ± SEM (n = 3), read-out: Pancreatic lipase Ki", "value": "52.9 ± 7.19", "unit": "µM"}, {"measurement": "IC50", "setting": "[5]; porcine PNLIP, p-NPP substrate, pH 7.4, 37°C, mean ± SEM (n = 3), read-out: Pancreatic lipase IC50", "value": "35.8 ± 12.4", "unit": "µM"}, {"measurement": "reduction of HSL gene expression", "setting": "HSL gene", "value": 60.38, "unit": "%"}, {"measurement": "reduction in neutral lipid accumulation (NR staining)", "setting": "[6]", "value": 19.27, "unit": "%"}, {"measurement": "reduction of C/EBPα gene expression", "setting": "C/EBPα gene", "value": 55.65, "unit": "%"}, {"measurement": "decrease in lipid accumulation (ORO staining)", "setting": "[7]", "value": 22.21, "unit": "%"}]}
{"compound": "CCCCCCCCCCC[C@@H](C[C@@H]1OC(=O)[C@H]1CCCCCC)OC(=O)[C@H](CC(C)C)NC=O", "note": "[Orlistat, orlistat, reference compound]", "values": [{"measurement": "Pancreatic lipase Mode of inhibition", "setting": "[5]", "value": "Uncompetitive"}]}
{"compound": "CC(C)=CCCC(C(=O)O)C1CCC2(C)C3CCC4C(C)(CCC(O)C4(C)C)C3=CCC12C", "note": "(stereo not drawn) [RA-5, 3β-hydroxylanosta-9,24-dien-21-oic acid]", "values": [{"measurement": "cytotoxicity in the HepG2 model (abstract)", "setting": "HepG2 cells [1]", "value": "lacked cytotoxicity"}, {"measurement": "decrease in glycerol release", "setting": "[2]", "value": 34.72, "unit": "%"}, {"measurement": "increase in the expression of the AMPK gene", "setting": "AMPK gene", "value": 28.05, "unit": "%"}, {"measurement": "reduction in neutral lipid accumulation (NR staining)", "setting": "HepG2 cells [3]", "value": 39, "unit": "%"}, {"measurement": "reduction of OA-induced lipid accumulation (ORO staining)", "setting": "HepG2 cells [4]", "value": 23.47, "unit": "%"}, {"measurement": "reduction of PPARγ gene expression", "setting": "PPARγ gene", "value": 77.40, "unit": "%"}, {"measurement": "IC50", "setting": "[5]", "value": "27.6 ± 8.51", "unit": "µM"}, {"measurement": "Ki", "setting": "[5]", "value": "28.7 ± 8.84", "unit": "µM"}, {"measurement": "Pancreatic lipase Mode of inhibition", "setting": "[5]", "value": "mixed type of inhibition"}, {"measurement": "reduction of HSL gene expression", "setting": "HSL gene", "value": 66.54, "unit": "%"}, {"measurement": "reduction in neutral lipid accumulation (NR staining)", "setting": "[6]", "value": 10.37, "unit": "%"}, {"measurement": "reduction of C/EBPα gene expression", "setting": "C/EBPα gene", "value": 49.72, "unit": "%"}, {"measurement": "decrease in lipid accumulation (ORO staining)", "setting": "[7]", "value": 20.67, "unit": "%"}]}
